{
  "source": "patent US4349625A",
  "about": "“Method for assaying fatty acids” (Mitsubishi Chemical Industries Limited, priority 1979, dated 1982)",
  "format_in_all_cases": "biochemical",
  "key": {"[1]": {"target": "T1, FFA-albumin linkage in human serum (Homo sapiens, UniProt P02768)", "T1 construct": "were replaced by human serum samples; from tissue; host or cells: human serum", "T1 sequence (P02768 25-609)": "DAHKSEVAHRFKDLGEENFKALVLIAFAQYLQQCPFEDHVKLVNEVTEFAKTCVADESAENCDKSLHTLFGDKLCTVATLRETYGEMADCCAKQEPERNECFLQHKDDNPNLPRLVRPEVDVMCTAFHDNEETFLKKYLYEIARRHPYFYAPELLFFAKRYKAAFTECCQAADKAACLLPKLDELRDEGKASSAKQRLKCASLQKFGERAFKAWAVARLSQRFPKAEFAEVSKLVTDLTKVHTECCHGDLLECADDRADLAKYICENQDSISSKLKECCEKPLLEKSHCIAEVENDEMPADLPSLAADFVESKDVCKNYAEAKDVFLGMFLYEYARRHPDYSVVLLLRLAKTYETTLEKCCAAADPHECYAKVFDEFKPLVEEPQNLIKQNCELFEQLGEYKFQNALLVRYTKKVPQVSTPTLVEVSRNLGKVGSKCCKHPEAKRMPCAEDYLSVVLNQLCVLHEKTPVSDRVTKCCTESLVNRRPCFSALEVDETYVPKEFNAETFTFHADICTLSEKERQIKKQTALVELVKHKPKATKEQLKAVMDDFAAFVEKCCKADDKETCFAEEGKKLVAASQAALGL", "assay": "Example 2: enzymatic assay of FFA in human serum samples (Procedure A) with dissociating agent", "procedure": "The reaction was continued for 15 minutes at 37° C., and the OD340 values were read just before the addition of CoA solution and 15 minutes later when the reaction was almost complete and decrease in OD ceased. As a sample blank distilled water was substituted for the ACS solution in the reaction systems and the reaction and measurement of OD were carried out in the same way.\nThe concentration of FFA in a serum sample was calculated by the following equation: [formula] where:\nA=0D340 of the reaction system just before the addition of CoA solution;\nB=OD340 of the reaction system after 15 minutes\nC=OD340 just before the addition of CoA solution in the blank run, and\nD=OD340 after 15 minutes in the blank run."}, "[2]": {"target": "T2, FFA-albumin linkage (human serum albumin) (Homo sapiens, UniProt P02768)", "T2 sequence (P02768 25-609)": "as above", "assay": "Example 1: rate of ACS-coupled NADH reaction (Procedure A) on FFA sample containing albumin, with dissociating agent", "settings": "sample 0.5 mM FFA + 2.5% human serum albumin, 37° C.", "procedure": "100 mM Tris-HCl buffer pH 8.0 containing 2 mg/ml of Triton X-100, 2 mM 2Na-EDTA (disodium ethylenediaminetetraacetate) and 10 mM MgCl2.\n40 mg of ATP disodium salt, 50 mg of potassium phosphoenolpyruvate, 20 U of myokinase (available from Boehringer Mannheim (B.M.), grade I), 15 U of pyruvate kinase (available from B.M., grade II) and 15 U of lactate dehydrogenase (available from B.M., derived from rabbit muscle) are dissolved in 1 ml of the above-mentioned buffer.\nIn 1 ml of the above buffer, 3 mg of NADH disodium salt is dissolved.\nAn ACS solution in 50% glycerine in a concentration of about 4 U/ml as prepared in Preparation 1 which is diluted with three volumes of water is used.\nAqueous 0.5 mM potassium oleate solution is used. […] The content of the microcell was then preheated at 37° C. in a spectrophotometer (Shimadzu, model UV-200) equipped with a thermostated cell holder. Thereafter 20 μl of the CoA solution was added to initiate the reaction and decrease in optical density (OD) at 340 nm was recorded with the elapse of time. From the data, the value of maximum ΔOD/min was calculated."}, "[3]": {"target": "T2, FFA-albumin linkage (human serum albumin)", "assay": "Example 3: ACS/ACO colorimetric FFA assay (Procedure B) on potassium oleate plus human serum albumin", "settings": "0.5% in assay system; sample 280 μM potassium oleate + 2.5% human serum albumin; without agent -0.016", "procedure": "100 mM Tris-HCl buffer pH 8.0 containing 3.2 mM Triton X-100, 2 mM disodium ethylenediaminetetraacetate and a dissociating agent such as a benzenesulfonate.\n100 mM Tris-HCl buffer pH 8.0 containing 60 mM magnesium chloride.\nA solution of 80 mg of ATP disodium salt and 20 U of myokinase dissolved in 40 ml of Buffer (1).\nPrepared by adding 5 ml of the ACS solution in 50% glycerine with a concentration of about 4 U/ml as prepared in Preparation 1 to a solution of 25 mg of CoA in 5 ml of Buffer (2).\nA suspension of ACO in 50% saturated ammonium sulfate having a concentration of about 50 U/ml and prepared as described in Preparation 2. […]\nA mixture of 100 μl of a sample containing 280 μM potassium oleate and 2.5% human serum albumin, 400 μl of Enzyme Solution (1) and 100 μl of Enzyme Solution (2) was kept at 37° C. for 15 minutes. […] The reaction solution was placed into a cell having a thickness of 10 mm and the value (A) for optical density at 535 nm was measured. As a control, the sample was replaced by the same volume of water and the optical density value (B) was measured in the same way.\nAn aqueous potassium oleate solution which is free from albumin was separately prepared as a standard solution. This solution was substituted for the sample and the optical density value (C) was also measured in the same way. […]"}, "[4]": {"settings": "human serum C, solution of dissociating agent 20 mM, extraction method 560"}, "[5]": {"settings": "dissociating agent 25 mM, control with albumin 0.019, without albumin 0.076"}},
  "note": "Structures can show the parent of a compound that is named as a salt.",
  "data": [
    {"smiles": "O=C(O)CCCCCCCCCCCCC(=O)O", "note": "[Dipotassium 1,12-dodecamethylenedicarboxylate]", "values": [
      {"measurement": "FFA assayed", "setting": "[1]; [4]", "result": 575, "unit": "µM"},
      {"measurement": "maximum ΔOD340/min", "setting": "[2]; dissociating agent 2.5 mM", "result": "0.041 ΔOD340/min"},
      {"measurement": "maximum ΔOD340/min", "setting": "[2]; dissociating agent 10 mM", "result": "0.048 ΔOD340/min"}
    ]},
    {"smiles": "O=C(O)CCCCCCCCCCCCCCC(=O)O", "note": "[Dipotassium 1,14-tetradecamethylenedicarboxylate]", "values": [
      {"measurement": "FFA assayed", "setting": "[1]; human serum B, solution of dissociating agent 10 mM, extraction method 370", "result": 340, "unit": "µM"},
      {"measurement": "FFA assayed", "setting": "[1]; human serum C, solution of dissociating agent 10 mM, extraction method 560", "result": 570, "unit": "µM"},
      {"measurement": "maximum ΔOD340/min", "setting": "[2]; dissociating agent 2.5 mM", "result": "0.045 ΔOD340/min"}
    ]},
    {"smiles": "O=C(O)CCCCCCCCCCCCCCCCC(=O)O", "note": "[Dipotassium 1,16-hexadecamethylenedicarboxylate]", "values": [
      {"measurement": "maximum ΔOD340/min", "setting": "[2]; dissociating agent 2.5 mM", "result": "0.032 ΔOD340/min"}
    ]},
    {"smiles": "O=C(O)CCCCCCCCC(=O)O", "note": "[Potassium salt of 1,8-octamethylenedicarboxylic acid]", "values": [
      {"measurement": "maximum ΔOD340/min", "setting": "[2]; [5]", "result": "0.026 ΔOD340/min"}
    ]},
    {"smiles": "O=C(O)CCCCCCCCCCCC(=O)O", "note": "[Potassium salt of 1,11-undecamethylenedicarboxylic acid]", "values": [
      {"measurement": "FFA assayed", "setting": "[1]; human serum A, solution of dissociating agent 20 mM, extraction method 1475", "result": 1500, "unit": "µM"},
      {"measurement": "FFA assayed", "setting": "[1]; human serum B, solution of dissociating agent 20 mM, extraction method 370", "result": 340, "unit": "µM"},
      {"measurement": "FFA assayed", "setting": "[1]; [4]", "result": 570, "unit": "µM"},
      {"measurement": "maximum ΔOD340/min", "setting": "[2]; dissociating agent 5 mM", "result": "0.035 ΔOD340/min"},
      {"measurement": "maximum ΔOD340/min", "setting": "[2]; dissociating agent 10 mM", "result": "0.040 ΔOD340/min"},
      {"measurement": "maximum ΔOD340/min", "setting": "[2]; dissociating agent 20 mM", "result": "0.045 ΔOD340/min"}
    ]},
    {"smiles": "O=C(O)CCCCCCCCCCC(=O)O", "note": "[Potassium salt of decamethylenedicarboxylic acid]", "values": [
      {"measurement": "FFA assayed", "setting": "[1]; human serum B, solution of dissociating agent 50 mM, extraction method 370", "result": 335, "unit": "µM"},
      {"measurement": "maximum ΔOD340/min", "setting": "[2]; dissociating agent 5 mM", "result": "0.028 ΔOD340/min"},
      {"measurement": "maximum ΔOD340/min", "setting": "[2]; dissociating agent 10 mM", "result": "0.031 ΔOD340/min"},
      {"measurement": "maximum ΔOD340/min", "setting": "[2]; dissociating agent 20 mM", "result": "0.034 ΔOD340/min"}
    ]},
    {"smiles": "O=C(O)CCCCCCC(=O)O", "note": "[Potassium salt of hexamethylenedicarboxylic acid, reference compound]", "values": [
      {"measurement": "maximum ΔOD340/min", "setting": "[2]; [5]", "result": "0.015 ΔOD340/min"}
    ]},
    {"smiles": "O=C(O)CCCCC(=O)O", "note": "[Potassium salt of tetramethylenedicarboxylic acid, reference compound]", "values": [
      {"measurement": "maximum ΔOD340/min", "setting": "[2]; [5]", "result": "0.015 ΔOD340/min"}
    ]},
    {"smiles": "CCCCCc1ccc(S(=O)(=O)[O-])cc1.[Na+]", "note": "[Sodium p-n-amylbenzenesulfonate]", "values": [
      {"measurement": "maximum ΔOD340/min", "setting": "[2]; dissociating agent 50 mM", "result": "0.030 ΔOD340/min"}
    ]},
    {"smiles": "Cc1ccc(S(=O)(=O)O)cc1", "note": "[Sodium p-toluenesulfonate]", "values": [
      {"measurement": "FFA assayed", "setting": "[1]; human serum C, solution of dissociating agent 1000 mM, extraction method 560", "result": 585, "unit": "µM"},
      {"measurement": "maximum ΔOD340/min", "setting": "[2]; dissociating agent 100 mM", "result": "0.030 ΔOD340/min"},
      {"measurement": "ΔOD535", "setting": "[3]", "result": 0.078}
    ]}
  ]
}
